Legend:
Assay type in all cases: cell-based
[1] = test system: A431 cells; assay: In vitro tumor cell proliferation assay (Cell Titer-Glo) in A431 cells; details: Homo sapiens, A-431, 72 h, A431 human epidermoid carcinoma overexpressing HER1; 72 hours exposure; read-out: IC50, activities in A431 cell lines
Outline: (§1)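 Viability after 72 h drug exposure at 37 °C was read as CellTiter-Glo ATP luminescence, giving IC50. Cells (2.5×10^3/well, RPMI + 10% FBS) were compound-treated one day post-seeding, 0.1% DMSO final: A431 overexpresses HER1, N87 overexpresses HER2 and HER1.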

[2] = test system: H1975 cells; assay: In vitro tumor cell proliferation assay (Cell Titer-Glo) in H1975 cells; details: NCI-H1975; H1975 human NSCLC expressing mutant HER1 (L858R,T790M); 72 hours exposure; read-out: IC50, activities in H 1975 cell lines
Outline: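 After 72 h compound exposure at 37° C (top 10 uM down to 64 pM, 0.1% DMSO), viability of EGFR L858R/T790M-mutant H1975 cells was read as ATP luminescence.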

[3] = test system: N87; assay: In vitro tumor cell proliferation assay (Cell Titer-Glo) in N87 cells; details: N87 human gastric carcinoma overexpressing HER2 and HER1; 72 hours exposure; read-out: IC50, activities in N87 cell lines
Outline: as §1

| Compound | IC50 [1] [nM] | IC50 [2] [nM] | IC50 [3] [nM] |
| --- | --- | --- | --- |
| Cc1cccc(COc2ccc(Nc3ncnc4sc5c(c34)CCN(C(=O)/C=C/CN3CCCC3)C5)cc2Cl)n1 [Example 78, N-{3-chloro-4-[(6-methylpyridin-2-yl)methoxy]phenyl}-7-[(2E)-4-pyrrolidin-1-ylbut-2-enoyl]-5,6,7,8-tetrahydropyrido [4′,3′:4,5]thieno[2,3-d]pyrimidin-4-amine] | 1000 to 10000 | 1000 to 10000 | < 200 |
| O=C(/C=C/CN1CCOCC1)N1CCc2c(sc3ncnc(Nc4ccc(OCc5cnccn5)c(Cl)c4)c23)C1 [Example 80, N-[3-chloro-4-(pyrazin-2-ylmethoxy)phenyl]-7-[(2E)-4-morpholin-4-ylbut-2-enoyl]-5,6,7,8-tetrahydropyrido [4′3′:4,5]thieno[2,3-d]pyrimidin-4-amine] | 1000 to 10000 | 1000 to 10000 | < 200 |
| CCN(C)C/C=C/C(=O)N1CCc2c(sc3ncnc(Nc4ccc(OCc5cnccn5)c(Cl)c4)c23)C1 [Example 81, N-[3-chloro-4-(pyrazin-2-ylmethoxy)phenyl]-7-{(2E)-4-[ethyl(methyl)amino]but-2-enoyl}-5,6,7,8-tetrahydropyrido [4′,3′:4,5]thieno[2,3-d]pyrimidin-4-amine] | 1000 to 10000 | 200 to 1000 | < 200 |
| CC(C)N(C)C/C=C/C(=O)N1CCc2c(sc3ncnc(Nc4ccc(OCc5cnccn5)c(Cl)c4)c23)C1 [Example 82, N-[3-chloro-4-(pyrazin-2-ylmethoxy)phenyl]-7-{(2E)-4-[isopropyl(methyl)amino]but-2-enoyl}-5,6,7,8-tetrahydropyrido [4′3′:4,5]thieno[2,3-d]pyrimidin-4-amine] | 1000 to 10000 | 200 to 1000 | < 200 |
| O=C(/C=C/CN1CCCC1)N1CCc2c(sc3ncnc(Nc4ccc(OCc5cnccn5)c(Cl)c4)c23)C1 [Example 83, N-[3-chloro-4-(pyrazin-2-ylmethoxy)phenyl]-7-[(2E)-4-pyrrolidin-1-ylbut-2-enoyl]-5,6,7,8-tetrahydropyrido [4′3′:4,5]thieno[2,3-d]pyrimidin-4-amine] | 1000 to 10000 | 200 to 1000 | < 200 |
| Cc1cccc(COc2ccc(Nc3ncnc4sc5c(c34)CCN(C(=O)/C=C/CN3CCOCC3)C5)cc2Cl)n1 [Example 84, N-{3-chloro-4-[(6-methylpyridin-2-yl)methoxy]phenyl}-7-[(2E)-4-morpholin-4-ylbut-2-enoyl]-5,6,7,8-tetrahydropyrido [4′,3′:4,5]thieno[2,3-d]pyrimidin-4-amine] | 1000 to 10000 | 1000 to 10000 | < 200 |
| CN(C)C/C=C/C(=O)N1CCc2c(sc3ncnc(Nc4ccc(OCc5cnccn5)c(Cl)c4)c23)C1 [Example 85, N-[3-chloro-4-(pyrazin-2-ylmethoxy)phenyl]-7-[(2E)-4-(dimethylamino)but-2-enoyl]-5,6,7,8-tetrahydropyrido [4′,3′:4,5]thieno[2,3-d]pyrimidin-4-amine] | 200 to 1000 | 200 to 1000 | < 200 |
| CCN(CC)C/C=C/C(=O)N1CCc2c(sc3ncnc(Nc4ccc(OCc5cccnc5)c(Cl)c4)c23)C1 [Example 86, N-[3-chloro-4-(pyridin-3-ylmethoxy)phenyl]-7-[(2E)-4-(diethylamino)but-2-enoyl]-5,6,7,8-tetrahydropyrido [4′,3′:4,5]thieno[2,3-d]pyrimidin-4-amine] | 1000 to 10000 | 200 to 1000 | < 200 |
| CN(C)C/C=C/C(=O)N1CCc2c(sc3ncnc(Nc4ccc(OCc5cccnc5)c(Cl)c4)c23)C1 [Example 87, N-[3-chloro-4-(pyridin-3-ylmethoxy)phenyl]-7-[(2E)-4-(dimethylamino)but-2-enoyl]-5,6,7,8-tetrahydropyrido [4′,3′:4,5]thieno[2,3-d]pyrimidin-4-amine] | 200 to 1000 | 200 to 1000 | < 200 |
| O=C(/C=C/CN1CCCCC1)N1CCc2c(sc3ncnc(Nc4ccc(OCc5cccnc5)c(Cl)c4)c23)C1 [Example 88, N-[3-chloro-4-(pyridin-3-ylmethoxy)phenyl]-7-[(2E)-4-piperidin-1-ylbut-2-enoyl]-5,6,7,8-tetrahydropyrido [4′3′:4,5]thieno[2,3-d]pyrimidin-4-amine] | 1000 to 10000 | 200 to 1000 | < 200 |
| O=C(/C=C/CN1CCOCC1)N1CCc2c(sc3ncnc(Nc4ccc(OCc5cccnc5)c(Cl)c4)c23)C1 [Example 89, N-[3-chloro-4-(pyridin-3-ylmethoxy)phenyI]-7-[(2E)-4-morpholin-4-ylbut-2-enoyl]-5,6,7,8-tetrahydropyrido [4′,3′:4,5]thieno[2,3-d]pyrimidin-4-amine] | 1000 to 10000 | 200 to 1000 | < 200 |
| CCN(C)C/C=C/C(=O)N1CCc2c(sc3ncnc(Nc4ccc(OCc5cccnc5)c(Cl)c4)c23)C1 [Example 90, N-[3-chloro-4-(pyridin-3-ylmethoxy)phenyl]-7-{(2E)-4-[ethyl(methyl)amino]but-2-enoyl}-5,6,7,8-tetrahydropyrido [4′,3′:4,5]thieno[2,3-d]pyrimidin-4-amine] | 1000 to 10000 | 200 to 1000 | < 200 |
| CC(C)N(C)C/C=C/C(=O)N1CCc2c(sc3ncnc(Nc4ccc(OCc5cccnc5)c(Cl)c4)c23)C1 [Example 91, N-[3-chloro-4-(pyridin-3-ylmethoxy)phenyl]-7-{(2E)-4-[isopropyl(methyl)amino]but-2-enoyl}-5,6,7,8-tetrahydropyrido [4′,3′:4,5]thieno[2,3-d]pyrimidin-4-amine] | 1000 to 10000 | 200 to 1000 | < 200 |
| CN(C)C/C=C/C(=O)N1CCc2c(sc3ncnc(Nc4ccc5c(cnn5Cc5cccc(F)c5)c4)c23)C1 [Example 92, 7-[(2E)-4-(dimethylamino)but-2-enoyl]-N-[1-(3-fluorobenzyl)-1H-indazol-5-yl]-5,6,7,8-tetrahydropyrido [4′,3′:4,5]thieno[2,3-d]pyrimidin-4-amine] | < 200 | < 200 | < 200 |
| CN(C)C/C=C/C(=O)N1CCc2c(sc3ncnc(Nc4ccc5c(ccn5Cc5ccccc5)c4)c23)C1 [Example 93, N-(1-benzyl-1H-indol-5-yl)-7-[(2E)-4-(dimethylamino)but-2-enoyl]-5,6,7,8-tetrahydropyrido [4′,3′:4,5]thieno[2,3-d]pyrimidin-4-amine] | 200 to 1000 | < 200 | < 200 |
| CCN(CC)C/C=C/C(=O)N1CCc2c(sc3ncnc(Nc4ccc5c(ccn5Cc5ccccc5)c4)c23)C1 [Example 94, N-(1-benzyl-1H-indol-5-yl)-7-[(2E)-4-(diethylamino)but-2-enoyl]-5,6,7,8-tetrahydropyrido [4′,3′:4,5]thieno[2,3-d]pyrimidin-4-amine] | 200 to 1000 | 200 to 1000 | < 200 |
| CCN(CC)C/C=C/C(=O)N1CCc2c(sc3ncnc(Nc4ccc5c(cnn5Cc5ccccc5)c4)c23)C1 [Example 95, N-(1-benzyl-1H-indazol-5-yl)-7-[(2E)-4-(diethylamino)but-2-enoyl]-5,6,7,8-tetrahydropyrido [4′,3′:4,5]thieno[2,3-d]pyrimidin-4-amine] | 200 to 1000 | 200 to 1000 | < 200 |
| O=C(/C=C/CN1CCCCC1)N1CCc2c(sc3ncnc(Nc4ccc5c(ccn5Cc5ccccc5)c4)c23)C1 [Example 96, N-(1-benzyl-1H-indol-5-yl)-7-[(2E)-4-piperidin-1-ylbut-2-enoyl]-5,6,7,8-tetrahydropyrido [4′,3′:4,5]thieno[2,3-d]pyrimidin-4-amine] | 1000 to 10000 | 200 to 1000 | < 200 |
| CN(C)C/C=C/C(=O)N1CCc2c(sc3ncnc(Nc4ccc5c(cnn5Cc5ccccc5)c4)c23)C1 [Example 97, N-(1-benzyl-1H-indazol-5-yl)-7-[(2E)-4-(dimethylamino)but-2-enoyl]-5,6,7,8-tetrahydropyrido [4′,3′:4,5]thieno[2,3-d]pyrimidin-4-amine] | 200 to 1000 | 200 to 1000 | < 200 |
| CN(C)C/C=C/C(=O)N1CCc2c(sc3ncnc(Nc4ccc5c(ccn5Cc5cccc(F)c5)c4)c23)C1 [Example 98, 7-[(2E)-4-(dimethylamino)but-2-enoyl]-N-[1-(3-fluorobenzyl)-1H-indol-5-yl]-5,6,7,8-tetrahydropyrido [4′,3′:4,5]thieno[2,3-d]pyrimidin-4-amine] | 200 to 1000 | < 200 | < 200 |
| CCN(CC)C/C=C/C(=O)N1CCc2c(sc3ncnc(Nc4ccc5c(cnn5Cc5cccc(F)c5)c4)c23)C1 [Example 99, 7-[(2E)-4-(diethylamino)but-2-enoyl]-N-[1-(3-fluorobenzyl)-1H-indazol-5-yl]5,6,7,8-tetrahydropyrido [4′,3′:4,5]thieno[2,3-d]pyrimidin-4-amine] | 200 to 1000 | 200 to 1000 | < 200 |
| CCN(CC)C/C=C/C(=O)N1CCc2c(sc3ncnc(Nc4ccc5c(ccn5Cc5cccc(F)c5)c4)c23)C1 [Example 100, 7-[(2E)-4-(diethylamino)but-2-enoyl]-N-[1-(3-fluorobenzyl)-1H-indol-5-yl]-5,6,7,8-tetrahydropyrido [4′,3′:4,5]thieno[2,3-d]pyrimidin-4-amine] | 200 to 1000 | 200 to 1000 | < 200 |
| O=C(/C=C/CN1CCCCC1)N1CCc2c(sc3ncnc(Nc4ccc5c(cnn5Cc5cccc(F)c5)c4)c23)C1 [Example 101] | 200 to 1000 | 200 to 1000 | < 200 |
